This passage reports GI50 and TGI results from PubChem BioAssay (NCI).

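Step 1: Grow cells in 96-well plates. Step 2: Expose to compound for 48 hours at 5 concentrations. Step 3: Interpolate endpoints linearly; if unreached, use highest concentration. Abbreviation: GI50, concentration required for 50% inhibition of growth. Definition used: TGI = concentration required for complete inhibition of growth.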

Test systems include HOP-62 NSCLC; CCRF-CEM leukemia; TK-10 renal; HCT-15 colon; HCT-116 colon; IGROV1 ovarian; KM12 colon; UO-31 renal; OVCAR-3 ovarian; BT-549 breast.
What all share (assay): NCI-60 cell line screen, 48 h

In the case of `CCOC(=O)[C@@H](C)C[C@H](Cc1ccccc1)NC(=O)c1csc([C@@H](C[C@H](C(C)C)N(C)C(=O)[C@@H](NC(=O)[C@H]2CCCCN2C)C(C)(C)CC)OC(C)=O)n1`, the GI50 in the test with HOP-62 NSCLC was 0.00178 µM; in the test with CCRF-CEM leukemia, 0.00246 µM; in the test on TK-10 renal, 0.0418 µM; with HCT-15 colon, less than 0.00167 µM; in the test on HCT-116 colon, less than 0.00167 µM; in the test with IGROV1 ovarian it was 0.0021 µM. Besides, the GI50 in the test with KM12 colon is less than 0.00167 µM; in the test on UO-31 renal, 0.0132 µM; in the test on OVCAR-3 ovarian it was less than 0.00167 µM; in the test with BT-549 breast, less than 0.00167 µM. Moreover, the TGI in the test with HOP-62 NSCLC was more than 16.7 µM; with CCRF-CEM leukemia, more than 8.65 µM; with TK-10 renal it was more than 16.7 µM; with HCT-15 colon, more than 5.93 µM; in the test with HCT-116 colon, 3.02 µM; with IGROV1 ovarian it was more than 16.7 µM. For the same compound, the results for the TGI with KM12 colon, in the test with UO-31 renal and in the test with BT-549 breast were more than 16.7 µM, 14.1 µM and 0.107 µM, respectively.

Turning to `COc1cc(/C=C2\C(=O)N(Cc3ccc(Cl)cc3)c3ccccc32)cc(OC)c1OC`, the GI50 with HOP-62 NSCLC is 3.72 µM; with CCRF-CEM leukemia, 1.41 µM; in the test on TK-10 renal, 3.09 µM; in the test with HCT-15 colon, 1.68 µM; in the test with HCT-116 colon, 1.68 µM; in the test on IGROV1 ovarian, 2.73 µM. The GI50 with KM12 colon was 2.19 µM; in the test with UO-31 renal, 2.06 µM; in the test with OVCAR-3 ovarian it was 1.57 µM; in the test on BT-549 breast, 2.51 µM. Also, the TGI with HOP-62 NSCLC worked out at 12.5 µM; in the test on CCRF-CEM leukemia it was 4.82 µM; in the test on TK-10 renal, 30.1 µM; with HCT-15 colon, 3.43 µM; in the test on HCT-116 colon it was 3.19 µM; in the test on IGROV1 ovarian it was 10.3 µM. The TGI was 5.7 µM with KM12 colon, 6.8 µM in the test on UO-31 renal, 3.31 µM with OVCAR-3 ovarian and 11.6 µM with BT-549 breast.

With `Cn1cc(/C=C\[N+](=O)[O-])c2ccccc21`, the GI50 was more than 100 µM with HOP-62 NSCLC; 25.2 µM in the test on CCRF-CEM leukemia; 78.3 µM in the test on TK-10 renal; 44.3 µM in the test on HCT-15 colon; 19 µM in the test with HCT-116 colon; 49.2 µM in the test with IGROV1 ovarian. Moreover, the GI50 with KM12 colon is 34.9 µM; in the test with UO-31 renal, more than 100 µM; in the test with OVCAR-3 ovarian, 28.1 µM; in the test with BT-549 breast, 34.3 µM. The TGI was more than 100 µM in the test with HOP-62 NSCLC; more than 100 µM in the test with CCRF-CEM leukemia; more than 100 µM with TK-10 renal; more than 100 µM in the test with HCT-15 colon; 43 µM in the test on HCT-116 colon; more than 100 µM in the test on IGROV1 ovarian. In addition, the TGI in the test with KM12 colon is more than 100 µM; in the test with UO-31 renal it was more than 100 µM; with OVCAR-3 ovarian, more than 100 µM; with BT-549 breast, 78.5 µM.

Take `O=C1NC(=S)S/C1=C\c1cn(-c2ccccc2)nc1-c1ccccc1`: the GI50 is 22.7 µM in the test with HOP-62 NSCLC; 2.5 µM in the test with CCRF-CEM leukemia; 8 µM in the test on TK-10 renal; 4.71 µM in the test with HCT-15 colon; 5.62 µM in the test on HCT-116 colon; 13.9 µM in the test on IGROV1 ovarian. The GI50 in the test with KM12 colon was 6.24 µM; with UO-31 renal it was 4.39 µM; in the test with OVCAR-3 ovarian it was 11.6 µM; with BT-549 breast, 5.2 µM. The TGI is 68.4 µM in the test on HOP-62 NSCLC; 69.8 µM with CCRF-CEM leukemia; 85.2 µM in the test on TK-10 renal; 23.2 µM in the test with HCT-15 colon; 21.3 µM in the test on HCT-116 colon; 38.9 µM in the test on IGROV1 ovarian. Further, the TGI with KM12 colon came out at 21.7 µM; with UO-31 renal it was 25.2 µM; in the test on OVCAR-3 ovarian, 29 µM; with BT-549 breast, 23.7 µM.

As for `COc1cc(-c2cc(/C=C/C(=O)c3ccc(F)c(F)c3)[nH]n2)cc(OC)c1OC`, the GI50 with HOP-62 NSCLC was 4.39 µM; in the test with CCRF-CEM leukemia it was 3.08 µM; in the test on TK-10 renal, 2.29 µM; in the test on HCT-15 colon, 3.01 µM; in the test with HCT-116 colon, 4 µM; in the test with IGROV1 ovarian it was 3.62 µM. For the same compound, the GI50 with KM12 colon was 3.06 µM; in the test on UO-31 renal it was 2.63 µM; with OVCAR-3 ovarian it was 2.39 µM; in the test with BT-549 breast, 4.1 µM. The TGI in the test with HOP-62 NSCLC is more than 100 µM; in the test with CCRF-CEM leukemia it was 47.2 µM; in the test on TK-10 renal it was 7.41 µM; in the test with HCT-15 colon, more than 100 µM; in the test on HCT-116 colon it was 13.9 µM; with IGROV1 ovarian, 87 µM. Besides, the TGI stood at 11.4 µM with KM12 colon, 14.2 µM in the test on UO-31 renal, 6.25 µM in the test with OVCAR-3 ovarian and 19.3 µM in the test with BT-549 breast.

`CCCCN(CCCC)C(=O)[C@H](CC)[C@@H]1CC[C@@H](C)[C@@H]([C@H](C)[C@@H](O)[C@@H](C)C(=O)[C@H](CC)C2O[C@]3(C=C[C@@H](O)[C@]4(CC[C@@](C)([C@H]5CC[C@](O)(CC)[C@H](C)O5)O4)O3)[C@H](C)C[C@@H]2C)O1` (some centres undefined): the GI50 in the test on HOP-62 NSCLC is 3.79 µM; with CCRF-CEM leukemia it was 3.13 µM; in the test with TK-10 renal, 3.57 µM; in the test on HCT-15 colon, 2.31 µM; in the test with HCT-116 colon it was 2.39 µM; in the test on IGROV1 ovarian, 3 µM. For the same compound, the GI50 in the test with KM12 colon is 1.83 µM; with UO-31 renal, 2.26 µM; with OVCAR-3 ovarian, 1.87 µM; in the test on BT-549 breast, 2.73 µM. Also, the TGI in the test with HOP-62 NSCLC is 27.4 µM; in the test on CCRF-CEM leukemia it was 11.7 µM; in the test with TK-10 renal it was more than 100 µM; in the test on HCT-15 colon it was 6.12 µM; with HCT-116 colon, 6.9 µM; in the test on IGROV1 ovarian, 15.2 µM. For the same compound, the TGI came out at 3.91 µM in the test on KM12 colon, 8.6 µM with UO-31 renal, 4.84 µM in the test on OVCAR-3 ovarian and 11.3 µM in the test on BT-549 breast.
